The results in this text go back to paper PMC11472331 (Journal of Medicinal Chemistry, 2024).

Molecules are shown by their SMILES. Like-named read-outs stand apart in the source and are kept apart here.

The target of series [1] is HDAC1 (Homo sapiens, UniProt Q13547). Briefly: HDAC isoform inhibition assay (Reaction Biology). The settings on record: read-out: IC50 HDAC1; 10-dose IC50 mode, threefold serial dilution starting at 10 μM.
Series [2] concerns the target T1, LSD1 (Homo sapiens, UniProt O60341). As to conditions: read-out: IC50 (μM, LSD1 inhibition); 10-dose IC50 mode, singlet, threefold serial dilution starting at 100 μM.
Series [3] addresses T1, LSD1. Briefly: KDM1/LSD1 activity quantification/colorimetric assay. The format is biochemical. As to conditions: 1 and 10 μM; compared with Corgline, selegiline, tranylcypromine, pargyline. The protocol: LSD1 inhibitory assay was also performed using the KDM1/LSD1 Activity Quantification/Colorimetric Assay Kit, as described earlier.[38]
Series [4] has as its target T2, HDAC6 (Homo sapiens, UniProt Q9UBN7).
T2 sequence (Q9UBN7 1-1215): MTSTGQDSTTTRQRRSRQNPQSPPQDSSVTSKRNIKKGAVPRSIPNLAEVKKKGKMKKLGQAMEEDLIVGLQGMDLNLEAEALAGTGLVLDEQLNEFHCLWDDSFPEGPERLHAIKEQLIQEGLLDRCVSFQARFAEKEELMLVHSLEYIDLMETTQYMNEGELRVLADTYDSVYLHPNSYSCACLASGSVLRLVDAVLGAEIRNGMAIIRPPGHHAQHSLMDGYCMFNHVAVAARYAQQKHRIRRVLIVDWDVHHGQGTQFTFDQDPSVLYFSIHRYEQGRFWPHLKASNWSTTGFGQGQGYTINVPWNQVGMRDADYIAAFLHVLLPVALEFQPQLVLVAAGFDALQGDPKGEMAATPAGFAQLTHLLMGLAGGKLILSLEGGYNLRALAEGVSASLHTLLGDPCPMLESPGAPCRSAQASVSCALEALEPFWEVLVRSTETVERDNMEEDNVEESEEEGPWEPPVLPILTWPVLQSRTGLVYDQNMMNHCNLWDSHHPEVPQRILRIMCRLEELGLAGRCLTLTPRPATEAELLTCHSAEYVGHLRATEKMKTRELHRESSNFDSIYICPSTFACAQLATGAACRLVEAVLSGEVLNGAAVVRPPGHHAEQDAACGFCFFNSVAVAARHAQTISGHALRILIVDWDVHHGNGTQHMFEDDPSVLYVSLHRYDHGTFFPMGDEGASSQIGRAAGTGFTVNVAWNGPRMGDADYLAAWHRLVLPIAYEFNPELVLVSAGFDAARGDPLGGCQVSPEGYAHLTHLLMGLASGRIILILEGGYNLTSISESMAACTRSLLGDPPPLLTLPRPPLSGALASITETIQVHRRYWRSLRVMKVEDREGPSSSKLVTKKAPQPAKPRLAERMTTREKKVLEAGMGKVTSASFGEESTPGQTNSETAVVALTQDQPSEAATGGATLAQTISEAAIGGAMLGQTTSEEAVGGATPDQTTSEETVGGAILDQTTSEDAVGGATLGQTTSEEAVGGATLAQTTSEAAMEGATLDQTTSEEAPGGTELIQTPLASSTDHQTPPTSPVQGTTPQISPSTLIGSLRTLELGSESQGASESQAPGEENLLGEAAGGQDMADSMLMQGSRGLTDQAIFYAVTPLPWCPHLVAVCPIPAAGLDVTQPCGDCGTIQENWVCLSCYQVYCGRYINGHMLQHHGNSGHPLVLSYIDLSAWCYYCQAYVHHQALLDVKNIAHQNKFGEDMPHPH
The experiment in a line: HDAC isoform inhibition assay (Reaction Biology).

Series [5] relates to HCT-116. The experiment in a line: HCT-116 xenograft model. The settings on record: 50 or 100 mg/kg ip qd, nude mice. The format is in vivo, Balb/c nude mice.
Protocol: (A) Tumor size was evaluated twice a week, and (B) body weight was recorded daily in the first week, followed by semiweekly measurements.
Once the tumor sizes reached 150 mm^3, the mice were divided into four treatment groups, each comprising six mice. […] Throughout the experiment, tumor size and body weight were measured twice a week, with tumor volume (mm^3) calculated using the formula LW^2/2 (L is the tumor length, and W is the tumor width). Tumor growth inhibition (TGI) was calculated by dividing the tumor volumes from treatment groups by those of the control groups, expressed as a percentage.
Series [6] in a line: in vivo. The settings on record: male, Sprague-Dawley, rat, plasma, po, 20 mg/kg.
Series [7] concerns the target HDAC2 (Homo sapiens, UniProt Q92769). Briefly: HDAC isoform inhibition assay (Reaction Biology). The settings on record: read-out: IC50 HDAC2; 10-dose IC50 mode, threefold serial dilution starting at 10 μM.
Series [8] addresses T3, HDAC8 (Homo sapiens, UniProt Q9BY41).
T3 sequence (Q9BY41 1-377): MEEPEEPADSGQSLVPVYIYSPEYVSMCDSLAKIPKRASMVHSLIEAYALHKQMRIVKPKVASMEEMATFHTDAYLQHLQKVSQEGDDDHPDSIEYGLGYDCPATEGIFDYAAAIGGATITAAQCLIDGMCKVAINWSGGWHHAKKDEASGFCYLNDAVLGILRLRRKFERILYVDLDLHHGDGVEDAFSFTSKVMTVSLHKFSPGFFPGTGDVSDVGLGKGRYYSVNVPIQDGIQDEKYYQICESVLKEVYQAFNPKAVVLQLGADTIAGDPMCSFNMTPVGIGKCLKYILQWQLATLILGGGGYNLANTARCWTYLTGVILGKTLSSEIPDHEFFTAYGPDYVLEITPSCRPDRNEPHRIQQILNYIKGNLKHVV
Briefly: HDAC isoform inhibition assay (Reaction Biology). As to conditions: read-out: IC50 HDAC8; 10-dose IC50 mode, threefold serial dilution starting at 10 μM.

Setting [9] is: read-out: IC50 HDAC6, 10-dose IC50 mode, threefold serial dilution starting at 10 μM.

Chain of HDAC2 (Q92769 whole entry, canonical isoform): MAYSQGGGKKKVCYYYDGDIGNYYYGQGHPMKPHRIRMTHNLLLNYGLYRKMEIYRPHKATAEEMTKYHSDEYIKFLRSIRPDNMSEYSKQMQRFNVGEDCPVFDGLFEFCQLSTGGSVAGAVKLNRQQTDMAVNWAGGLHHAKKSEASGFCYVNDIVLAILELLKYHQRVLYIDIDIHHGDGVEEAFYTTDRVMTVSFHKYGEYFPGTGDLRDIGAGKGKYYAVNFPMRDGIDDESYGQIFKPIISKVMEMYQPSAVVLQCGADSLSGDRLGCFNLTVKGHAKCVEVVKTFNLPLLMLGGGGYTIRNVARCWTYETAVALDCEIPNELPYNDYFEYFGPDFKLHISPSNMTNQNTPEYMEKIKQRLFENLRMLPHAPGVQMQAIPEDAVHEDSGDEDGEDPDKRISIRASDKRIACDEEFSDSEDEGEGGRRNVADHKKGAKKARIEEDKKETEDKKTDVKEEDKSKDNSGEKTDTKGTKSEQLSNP
Chain of HDAC1 (Q13547 whole entry, canonical isoform): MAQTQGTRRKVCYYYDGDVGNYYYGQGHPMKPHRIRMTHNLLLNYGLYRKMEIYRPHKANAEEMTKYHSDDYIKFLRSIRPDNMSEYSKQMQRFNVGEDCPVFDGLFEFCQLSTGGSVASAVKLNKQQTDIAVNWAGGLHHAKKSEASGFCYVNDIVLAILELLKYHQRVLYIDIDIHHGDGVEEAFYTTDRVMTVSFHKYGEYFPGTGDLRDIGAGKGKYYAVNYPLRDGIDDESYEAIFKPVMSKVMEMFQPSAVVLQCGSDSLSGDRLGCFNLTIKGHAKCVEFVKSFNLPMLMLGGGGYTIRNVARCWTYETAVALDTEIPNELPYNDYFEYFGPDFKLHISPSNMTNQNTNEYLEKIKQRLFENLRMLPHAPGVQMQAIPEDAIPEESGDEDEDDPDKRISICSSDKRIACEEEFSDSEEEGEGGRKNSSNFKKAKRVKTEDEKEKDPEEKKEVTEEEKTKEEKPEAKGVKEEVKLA

The IC50 is the concentration at which inhibition is half-maximal. On to `O=C(NO)c1ccc(CN[C@@H]2C[C@H]2c2ccccc2)cc1` [Compound 1, N-Hydroxy-4-((((1R,2S)-2-phenylcyclopropyl)amino)methyl)benzamide], for which the values for the IC50 in series [1] and in series [2] were 8.72 µM and 28 µM, respectively.
For orientation: Tmax means the time at which the peak concentration occurs. On to `O=C(/C=C/c1cccc(S(=O)(=O)N[C@@H]2C[C@H]2c2ccccc2)c1)NO` [Compound 2, (E)-N-Hydroxy-3-(3-(N-((1R,2S)-2-phenylcyclopropyl)sulfamoyl)phenyl)acrylamide], for which the 50% inhibitory concentration (IC50) in series [1] worked out at 0.125 µM; in series [2] it was 0.571 µM; in series [4] it was 0.011 µM; in series [4] (setting [9]), 0.0118 µM; in series [7] it was 0.373 µM. For the same compound, in series [3], the “inhibition of LSD1 activity versus standard LSD1 inhibitors” value is “more effective in inhibiting the activity of LSD1 than the standard LSD1 inhibitor”. Further, in series [5], the “toxicity based on body weight measurements” value is on record as “did not cause evident toxicity in animals”. Moreover, the Tmax in series [6] came to 1.1 ± 0.9 h.
For the compound `O=C(/C=C/c1ccc(S(=O)(=O)N[C@@H]2C[C@H]2c2ccccc2)cc1)NO` [Compound 3, (E)-N-Hydroxy-3-(4-(N-((1R,2S)-2-phenylcyclopropyl)sulfamoyl)phenyl)acrylamide], the IC50 in series [1] was found to be 0.116 µM; in series [2] it was 0.899 µM; in series [4] it was 0.009 µM; in series [4] (setting [9]), 0.00966 µM; in series [8], 0.753 µM; in series [7], 0.343 µM.
`O=C(CCCCCC(=O)N[C@@H]1C[C@H]1c1ccccc1)NO` [Compound 4, N1-Hydroxy-N7-((1R,2S)-2-phenylcyclopropyl)heptanediamide]: the IC50 in series [2] was found to be 38.3 µM.
On the same count and under the same terms, to `O=C(CCCCCCC(=O)N[C@@H]1C[C@H]1c1ccccc1)NO` [Compound 5, N1-Hydroxy-N8-((1R,2S)-2-phenylcyclopropyl)octanediamide] belongs 14.6 µM; to `O=C(CCCCCCCCC(=O)N[C@@H]1C[C@H]1c1ccccc1)NO` [Compound 7, N1-Hydroxy-N10-((1R,2S)-2-phenylcyclopropyl)decanediamide], 7.68 µM.
In the case of `O=C(CCCCCCC(=O)Nc1ccc(CN[C@@H]2C[C@H]2c2ccccc2)cc1)NO` [Compound 8], the 50% inhibitory concentration (IC50) was determined as 1.61 µM in series [2] and 3.73 µM in series [4] (setting [9]).
Regarding `O=C(NO)c1ccc(CN2CCC(CN[C@@H]3C[C@H]3c3ccccc3)CC2)cc1` [Compound 9, N-Hydroxy-4-((4-((((1R,2S)-2-phenylcyclopropyl)amino)methyl)piperidin-1-yl)methyl)benzamide], the IC50 was determined as 12.9 µM in series [1] and 1.26 µM in series [8].
`O=C(NO)c1ccc(CN2CCC(S(=O)(=O)N[C@@H]3C[C@H]3c3ccccc3)CC2)cc1` [Compound 10, N-Hydroxy-4-((4-(N-((1R,2S)-2-phenylcyclopropyl)sulfamoyl)piperidin-1-yl)methyl)benzamide]: the half-maximal inhibitory concentration (IC50) is 4.12 µM in series [1]; 2.4 µM in series [2]; 0.009 µM in series [4] (read-out: HDAC6 IC50 as given in the text, rounded values of the running text); 0.00932 µM in series [4] (setting [9]); 0.407 µM in series [8]; 8.3 µM in series [7].
